Data: BigSolDB 2.1

O=C1CCC(c2ccccc2)=NN1
solubility (mole fraction)
Details	293.15 K	298.15 K	303.15 K	308.15 K	313.15 K
in transcutol	0.425	0.453	0.478	0.507	0.527
in water	7.45e-07	9.1e-07	1.09e-06	1.34e-06	1.64e-06
